Structures can show the parent of a compound that is named as a salt.
Assays:
[1] = zeta potential of terbinafine hydrochloride solution; assay type: physicochemical; settings: 0.02 g/ml solution
Source text: Prototype measurements of zeta potential of the 0.02 g/ml terbinafine hydrochloride solution and the result is positive at pH of below 5.11. However, there are other anions in the solution, e.g., chloride ion and hydroxide ion (sodium hydroxide was used to adjust the solution pH) that make negative values of zeta potential. [table]

[2] = 0.5% in methanol/water (4:6), 25 degrees Celsius; cited from earlier work
[3] = theoretical fraction of positively charged terbinafine from pKa; assay type: physicochemical
Source text: The positive charge can be determined by examining the pKa of the active ingredient. […] At pH<pKa, the positively charged terbinafine is more than 50%. When pH>pKa the positively charged terbinafine is less than 50%.

## CN(C/C=C/C#CC(C)(C)C)Cc1cccc2ccccc12 [Terbinafine hydrochloride]
[1]; pH 3.68
  Zeta Potential: +12.1 mV
[1]; pH 5.11
  Zeta Potential: +31.2 mV
[1]; pH 7.07 (adjusted with sodium hydroxide)
  Zeta Potential: −34.0 mV
[1]; pH 8.73 (adjusted with sodium hydroxide)
  Zeta Potential: −58.8 mV
[2]
  pH of a solution: approximately 4.7

## CN(C/C=C/C#CC(C)(C)C)Cc1cccc2ccccc12 [Terbinafine]
[3]; pH 5.10
  positively charged terbinafine: about 99%
[3]; pH 7.10
  positively charged terbinafine molecules: 50%
[3]; pH 9.10
  positively charged terbinafine: about 1%

Source: US10471024B2, “Increased effectiveness of allylamine drug compounds for topical treatment of fungal infections of the skin and skin appendages” (BIOPHILE CORPORATION, LTD., priority 2007, dated 2019)
